Test results reported in patent US20020037516A1, “Assay for identification of a test compound” (priority 2000, published 2002).

Assays:
mGAR = assay: Inhibition of tsr methylation activity by test compounds in 96 well plate, mGAR titration; assay type: biochemical; settings: compound at 50 μM, 25° C., 30 minutes, increasing amounts of mGAR; FIG. 7
Protocol: The Ki value for a compound is determined by relating the Km in the presence and the Km in the absence of compound using the equation: […]
(§1) In an preferred format, enzyme binding and activity is measured by measuring the Michealis constant (Km) of the enzymatic reaction in the absence and presence of a constant concentration of the test compound. Increasing amounts of target RNA are incubated with the modifying enzyme and the yield of modified RNA product is measured for each point. Data from this substrate titration are fitted to a saturation curve by non-linear regression. The Michaelis constant Km is determined from the curve-fitting by routine methods.
Test compounds were assayed in a 96 well plate for inhibition of tsr methylation activity at 50 μM. Compounds were incubated at 25° C. for 30 minutes in the presence of [^3H]SAM and enzyme, and increasing amounts of mGAR were added. RNA was precipitated with 2% TFA, filtered, and scintillation counted in a Wallac Trilux instrument.

rRNA = rRNA methylation by Erm E in the presence of erythromycin; assay type: biochemical; settings: erythromycin 200 μM
Protocol: Erm E is inhibited by erythromycin (FIG. 21). Erythromycin inhibits enzyme activity most noticably when the RNA is folded in the presence of erythromycin (FIG. 21). One embodiment of the invention may therefore involve folding of the RNA in the presence of compound before measuring the activity of the methyltransferase on the RNA.
The reaction was performed in 50 μl 50 mM Tris/Cl, pH 7.5, 4 mM MgCl2, 40 mM KCl, 10 mM DTT, for 120 min at 37° C. with 0.04 μM rRNA and 6 μCi [3H]SAM. The erythromycin concentration was 200 μM.

E. coli GAR = assay: TSR methyltransferase methylation of GAR RNA with [3H]SAM, titration of inhibitor; assay type: biochemical; settings: 23S (or GAR), competition with methyltransferase at A-1067; FIG. 6; read-out: affinity (binding measured by following inhibition of methylation)
Protocol: RNA (0-2 μM) was incubated in 25 mM HEPES-KOH, pH 7.5, 25 mM NH4Cl, 5 mM MgCl2, 5 mM DTT with test compounds. The methylation reaction was started by adding 8 pmol TSR methyltransferase and 1 μCi [^3H]SAM (Amersham-Pharmacia). The final assay volume was 100 μl. The reaction was incubated 15 min at 25° C. and stopped by adding 1 vol. 2% TFA. The TFA precipitate was filtered through a 96-well glassfiber filterplate (Millipore Multiscreen FB 1.0 μM Glass Fiber Type B Filter). The filters were washed with 2 vol. of 2% TFA. 50 μl scintillation cocktail (Wallac Optiszint) was added to each well of the dried filter plate and incorporated [^3H]-radioactivity was determined in a Wallac Trilux scintillation counter.
The L11 ribosomal protein is an integral part of the GAR, and its presence inhibits methyltransferase activity [Bechthold & Floss, 1994]. Various concentrations of L11 were incubated with E. coli GAR and [^3H]SAM as described above. As expected, methylation was inhibited as L11 concentration increased.
Methyltransferase and thiostrepton thus compete for binding at A-1067, and binding of thiostiepton to 23S (or GAR) can be measured by following inhibition of methylation.

[1] = molecular target: tsr methyltransferase (thiostrepton resistance methyltransferase); assay: Inhibition of tsr methyltransferase methylation of mGAR (GTPase activating region of 23S rRNA): [3H]SAM incorporation, mGAR titration, 96-well (FIG. 7); assay type: biochemical, Streptomyces azureus; settings: compounds at 50 μM, 25° C., 30 min, increasing mGAR, Ki=[I]/((Km(I)/Km)−1), tsr gene cloned, overexpressed in E. coli, read-out: TSR methyltransferase (GAR RNA methylation) Ki
Protocol: The Km for each titration is determined by fitting the data to the equation
Bmax: incorporation at RNA substrate saturation in cpm.
[RNA]: concentration of target RNA.
The Ki value for a compound is determined by relating the Km in the presence and the Km in the absence of compound using the equation:
[I]: concentration of the inhibitory compound
Km(I): Michaelis constant in the presence of inhibitor
Km: Michaelis constant in the absence of inhibitor
as §1, with “methods. […]” for “methods.”
RNA (0-2 μM) was incubated in 25 mM HEPES-KOH, pH 7.5, 25 mM NH4Cl, 5 mM MgCl2, 5 mM DTT with test compounds. […] 50 μl scintillation cocktail (Wallac Optiszint) was added to each well of the dried filter plate and incorporated [^3H]-radioactivity was determined in a Wallac Trilux scintillation counter. […]

`NC[C@@H]1O[C@H](O[C@H]2[C@@H](O)[C@H](O[C@@H]3[C@@H](O)[C@H](N)C[C@H](N)[C@H]3O[C@H]3O[C@H](CN)[C@@H](O)[C@H](O)[C@H]3N)O[C@@H]2CO)[C@H](N)[C@@H](O)[C@@H]1O` [neomycin] was tested. Which “inhibition of methyltransferase (methylation)” value (mGAR) did it give?
The value was “significant inhibition”.

Which “refolded rRNA methylation by Erm E” value (rRNA; refolded rRNA 0.04 μM, 120 min at 37° C., FIG. 21) does the source give for `CC[C@H]1OC(=O)[C@H](C)[C@@H](O[C@H]2C[C@@](C)(OC)[C@@H](O)[C@H](C)O2)[C@H](C)[C@@H](O[C@@H]2O[C@H](C)C[C@H](N(C)C)[C@H]2O)[C@](C)(O)C[C@@H](C)C(=O)[C@H](C)[C@@H](O)[C@]1(C)O` [erythromycin] here?
The value was “decrease”.

What about the “effect on rRNA methylation by Erm E” value (rRNA; unfolded rRNA) of the same compound?
The value was “no effect”.

Which Kd (E. coli GAR) does the source give for `C=C(NC(=O)C(=C)NC(=O)c1csc(C2=N[C@@H]3c4csc(n4)[C@H]4NC(=O)c5csc(n5)[C@H]([C@](C)(O)[C@@H](C)O)NC(=O)[C@H]5CSC(=N5)/C(=C/C)NC(=O)[C@H]([C@@H](C)O)NC(=O)c5csc(n5)[C@]3(CC2)NC(=O)[C@H](C)NC(=O)C(=C)NC(=O)[C@H](C)NC(=O)[C@H]([C@@H](C)CC)N[C@@H]2C=Cc3c([C@H](C)O)cc(nc3[C@H]2O)C(=O)O[C@@H]4C)n1)C(N)=O` [thiostrepton] here?
The Kd was 1.1 µM.

`NC[C@@H]1O[C@H](O[C@H]2[C@@H](O)[C@H](O[C@@H]3[C@@H](O)[C@H](N)C[C@H](N)[C@H]3O[C@H]3O[C@H](CN)[C@@H](O)[C@H](O)[C@H]3N)O[C@@H]2CO)[C@H](N)[C@@H](O)[C@@H]1O` [Neomycin, neomycin] was tested. Which Ki [1] did it give?
The Ki was 9 µM.
